Data set [1] concerns PDGFRα D842V mutated Gastrointestinal Stromal Tumors (GIST). Put plainly: Phase 1 study DCC-2618-01-001: antitumor activity (RECIST 1.1) in GIST patients with PDGFRα D842V mutation. It counts as in vivo, human. Conditions: GIST patient. As to the method:
(§1) Preliminary antitumor activity was measured by CT scans according to RECIST 1.1 every other cycle (every 56 days). Pharmacodynamics effects were measured as a reduction in mutation allele frequency (MAF) in plasma cell-free (cf) DNA and analyzed with Guardant 360 v2.9 or v2.10 (Guardant Health, Redwood City, Calif.), a. 73-gene next generation sequencing panel.
All patients had to have progressive disease on standard of care treatment and would rapidly progress without treatment. Three patients with PDGFRα-mutated Gastrointestinal Stromal Tumors (GIST) were enrolled in the study. The PDGFRα D842V mutation was identified in each patient by tumor biopsy. Based on non-clinical data and the available pharmacokinetic data from study DCC-2618-01-001, dose levels of >50 mg BID (daily dose equivalent 100 mg) were sufficient to lead to tumor control i.e. growth arrest in these advanced sarcomas of PDGFRα D842V mutation-dependent tumors in patients suffering from GIST. Out of 3 evaluable patients, 2 were enrolled at or above target-effective dose levels (150 mg QD and 100 mg BID). […] The patient at 100 mg BID is now in Cycle 11 (>40 weeks) and continues to benefit from treatment. […] The 2 patients had 1 and 3 prior treatments with Tyrosine Kinase Inhibitors, respectively.

Data set [2] in a line: Phase 1 study: plasma pharmacokinetics, Cycle 1 Day 15, after oral Compound A. In kind it is in vivo, human. To be noted: patients, Cycle 1 Day 15 steady state; for Cmax: human, po, 150 mg, Compound A Cmax (mean). From the text:
Phoenix WinNonlin version 6.3 was used to analyze plasma concentration versus time data for calculation of standard noncompartmental PK parameters. All PK calculations were completed using the nominal sample collection times.

Data set [3] deals with PDGFRα D842V mutation in plasma cell-free DNA. Put plainly: Phase 1 study: PDGFRα D842V mutation allele frequency in plasma cfDNA (Guardant 360). It counts as in vivo, human. To be noted: GIST patient at 100 mg BID. How it is done: as §1
To date, cfDNA follow up data for PDGFRα D842V mutation allele frequency in plasma are available for the patient at 100 mg BID only. The PDGFRα D842V mutation was not detected by cfDNA at baseline, but at Cycle 3 Day 1 (8 weeks) post-treatment a frequency of 0.59% was detected.

Data set [4] deals with circulating glioblastoma tumor cells (PDGFRα+/GFAP+). Put plainly: Phase 1 study: circulating glioblastoma tumor cells (PDGFRα+/GFAP+ CTC) in whole blood. It counts as in vivo, human. Conditions: GBM patient, 20 mg BID. How it is done: (§2) Preliminary antitumor activity was measured by CT scans according to RANO (Revised Assessment in Neuro-Oncology) criteria every other cycle followed by after every cycle (every 56 or 84 days). Pharmacodynamic effects […] were measured as a reduction in circulating tumor cells (CTC). Whole blood was enriched for CTCs in an OncoQuick tube. The CTC layer was incubated with an adenovirus that replicates and expresses GFP in cells with high levels of telomerase (Oncolys BioPharma Inc.). Cells were then incubated with fluorescently-labeled antibodies, fixed, and stained with DAPI. Cells positive for DAPI, GFP, PDGFRα and GFAP fluorescence were counted as circulating glioblastoma tumor cells using a BioTek Cytation 5 imager. Glial fibrillary acidic protein (GFAP) is unambiguously attributed to glial cells.
The relevance of PDGFRα amplification has been assessed in pediatric and adult high-grade astrocytomas (HGA) including glioblastomas. […] Dunn et al., provide additional evidence that PDGFRα amplification is a driver genomic alteration for GBM (Dunn et al., Genes Dev. (2012) 26(8):756-84). […] The frequency dropped in cycles 13 (52 weeks) and 17 (68 weeks) to 1.11 and 0.58 CTCs/mL, respectively.

Data set [5] has as its system PDGFRα amplified glioblastoma. Put plainly: Phase 1 study: antitumor activity (RANO) in glioblastoma patient with PDGFRα amplification. Conditions: GBM patient, 20 mg BID oral. In kind it is in vivo, human. As to the method: as §2
All patients had to have progressive disease on standard of care treatment and would rapidly progress without treatment. One patient with PDGFRα amplified glioblastoma (GBM; 6× amplified, 12 copies) was enrolled in the study at the 20 mg BID dose level. The patient had been treated initially with combined radio-chemotherapy followed by temozolomide alone and progressed after 3 months. The GBM patient is now in cycle 19 (>17 months on study) and continues to benefit from treatment. […] FIG. 1B provided an additional proof of the tumor reduction after cycle 9.

The target in data set [6] is T1, recombinant wild type PDGFRβ (Homo sapiens, UniProt P09619).
T1 construct: purchased DeCode Biostructures, Bainbridge Island, Wash
Put plainly: Biochemical assay for PDGFRB (coupled pyruvate kinase/lactate dehydrogenase). Conditions: 0.5 mM ATP, 9 nM PDGFRB; read-out: IC50, inhibition of recombinant wild type PDGFRβ enzyme activity. As to the method:
(§3) The reaction rate was calculated using the 2-3 h time frame.

Data set [7] deals with T2, recombinant D842V mutant PDGFRα (Homo sapiens, UniProt P16234, D842V).
T2 construct: His (N); purchased Invitrogen, Carlsbad, Calif
Put plainly: Biochemical assay for PDGFRα D842V (coupled pyruvate kinase/lactate dehydrogenase). Conditions: 0.5 mM ATP, 3 nM PDGFRA D842V; read-out: IC50, inhibition of recombinant D842V mutant PDGFRα enzyme activity. As to the method: as §3

In data set [8] the test system is D842V mutant PDGFRα BaF3 cells. Put plainly: BaF3 PDGFRα D842V cell proliferation assay (resazurin). It counts as cell-based. To be noted: Mus musculus, 67 h + 5 h resazurin, read-out: IC50, inhibition of proliferation of D842V mutant PDGFRα BaF3 cells. How it is done:
(§4) BaF3 cells were transfected with a construct encoding D842V PDGFRα and selected for IL-3 independence.
(§5) A serial dilution of test compound was dispensed into a 96-well black clear bottom plate (Corning, Corning, N.Y.). Ten thousand cells were added per well in 200 μL complete growth medium. […] Plates were read on a Synergy2 reader (Biotek, Winooski, Vt.) using an excitation of 540 nm and an emission of 600 nm. Data was analyzed using Prism software (GraphPad, San Diego, Calif.) to calculate IC50 values.
A general note: The colour change of resazurin is a common sign of viable cells or microbes.

Data set [9] concerns FIP1L1-PDGFRα fusion in EOL-1 cells. Put plainly: EOL-1 Western blot, phospho-PDGFRα (Tyr754). Conditions: Homo sapiens, EOL1, 4 hours, read-out: IC50, inhibition of phosphorylation of FIP1L1-PDGFRα fusion in EOL-1 cells. In kind it is cell-based. How it is done:
(§6) Cells were washed with PBS, then lysed. Cell lysates were separated by SDS-PAGE and transferred to PVDF. Phospho-PDGFRα (Tyr754) was detected using an antibody from Cell Signaling Technology (Beverly, Mass.), ECL Plus detection reagent (GE Healthcare, Piscataway, N.J.) and a Molecular Devices Storm 840 phosphorimager in fluorescence mode. Blots were stripped and probed for total PDGFRα using an antibody from Cell Signaling Technology (Beverly, Mass.). IC50 values were calculated using Prism software (GraphPad, San Diego, Calif.).

Data set [10] addresses T3, D842V mutant PDGFRα expressed in BaF3 cells (Homo sapiens, UniProt P16234, D842V).
T3 construct: expressed in transfected cells; host or cells: BaF3 cells (IL-3 independent selection)
The data set is described as follows: BaF3 PDGFRα D842V Western blot, phospho-PDGFRα (Tyr754). It counts as cell-based. Conditions: 4 hours, read-out: IC50, inhibition of phosphorylation of D842V mutant PDGFRα expressed in BaF3 cells.
Excerpt: as §4, §6
A general note: Immunoblotting shows a protein as a band on a membrane.

For data set [11], the target named is T4, recombinant wild type PDGFRα (Homo sapiens, UniProt P16234).
T4 construct: purchased DeCode Biostructures, Bainbridge Island, Wash
Put plainly: Biochemical assay for PDGFRα (coupled pyruvate kinase/lactate dehydrogenase). To be noted: 0.5 mM ATP, 4.8 nM PDGFRA; read-out: IC50, inhibition of recombinant wild type PDGFRα enzyme activity.
Experimental: Inhibition of PDGFRA was measured after adding serial diluted test compound (final assay concentration of 1% DMSO). A decrease in absorption at 340 nm was monitored continuously for 6 hours at 30° C. on a multi-mode microplate reader (BioTek, Winooski, Vt.). The reaction rate was calculated using the 1-2 h time frame. The reaction rate at each concentration of compound was converted to percent inhibition using controls (i.e. reaction with no test compound and reaction with a known inhibitor) and IC50 values were calculated by fitting a four-parameter sigmoidal curve to the data using Prism (GraphPad, San Diego, Calif.).

Data set [12] has as its system FIP1L1-PDGFRα fusion in EOL-1 cells. Put plainly: EOL-1 cell proliferation assay (resazurin). In kind it is cell-based. To be noted: Homo sapiens, EOL1; 67 h + 5 h resazurin; read-out: IC50, inhibition of proliferation of FIP1L1-PDGFRα fusion in EOL-1 cells. As to the method:
as §5

As a reminder, the Cmax is the highest concentration seen after dosing.

T1 sequence (P09619 with tags, fused parts or gaps N1019K): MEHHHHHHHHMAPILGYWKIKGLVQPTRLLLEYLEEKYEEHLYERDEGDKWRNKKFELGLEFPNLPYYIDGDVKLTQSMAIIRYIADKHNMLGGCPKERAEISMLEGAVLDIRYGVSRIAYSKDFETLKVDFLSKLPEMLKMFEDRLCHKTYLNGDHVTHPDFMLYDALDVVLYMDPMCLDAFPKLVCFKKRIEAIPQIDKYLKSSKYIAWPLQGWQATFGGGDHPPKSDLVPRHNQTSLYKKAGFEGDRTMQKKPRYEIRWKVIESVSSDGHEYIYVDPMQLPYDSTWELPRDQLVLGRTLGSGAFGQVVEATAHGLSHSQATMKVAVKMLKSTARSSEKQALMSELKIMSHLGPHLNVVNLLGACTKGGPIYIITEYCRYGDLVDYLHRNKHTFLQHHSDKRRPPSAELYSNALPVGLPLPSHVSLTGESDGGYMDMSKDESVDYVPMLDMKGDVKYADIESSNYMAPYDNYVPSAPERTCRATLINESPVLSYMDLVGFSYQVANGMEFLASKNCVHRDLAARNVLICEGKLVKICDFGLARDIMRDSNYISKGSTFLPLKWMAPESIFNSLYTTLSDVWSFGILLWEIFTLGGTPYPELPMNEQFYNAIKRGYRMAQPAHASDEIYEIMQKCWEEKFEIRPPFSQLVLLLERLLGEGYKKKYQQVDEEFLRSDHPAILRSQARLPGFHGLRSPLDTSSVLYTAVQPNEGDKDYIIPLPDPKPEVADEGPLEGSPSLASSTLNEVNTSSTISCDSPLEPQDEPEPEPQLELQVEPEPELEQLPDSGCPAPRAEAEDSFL
T4 sequence (P16234 with tags, fused parts or gaps): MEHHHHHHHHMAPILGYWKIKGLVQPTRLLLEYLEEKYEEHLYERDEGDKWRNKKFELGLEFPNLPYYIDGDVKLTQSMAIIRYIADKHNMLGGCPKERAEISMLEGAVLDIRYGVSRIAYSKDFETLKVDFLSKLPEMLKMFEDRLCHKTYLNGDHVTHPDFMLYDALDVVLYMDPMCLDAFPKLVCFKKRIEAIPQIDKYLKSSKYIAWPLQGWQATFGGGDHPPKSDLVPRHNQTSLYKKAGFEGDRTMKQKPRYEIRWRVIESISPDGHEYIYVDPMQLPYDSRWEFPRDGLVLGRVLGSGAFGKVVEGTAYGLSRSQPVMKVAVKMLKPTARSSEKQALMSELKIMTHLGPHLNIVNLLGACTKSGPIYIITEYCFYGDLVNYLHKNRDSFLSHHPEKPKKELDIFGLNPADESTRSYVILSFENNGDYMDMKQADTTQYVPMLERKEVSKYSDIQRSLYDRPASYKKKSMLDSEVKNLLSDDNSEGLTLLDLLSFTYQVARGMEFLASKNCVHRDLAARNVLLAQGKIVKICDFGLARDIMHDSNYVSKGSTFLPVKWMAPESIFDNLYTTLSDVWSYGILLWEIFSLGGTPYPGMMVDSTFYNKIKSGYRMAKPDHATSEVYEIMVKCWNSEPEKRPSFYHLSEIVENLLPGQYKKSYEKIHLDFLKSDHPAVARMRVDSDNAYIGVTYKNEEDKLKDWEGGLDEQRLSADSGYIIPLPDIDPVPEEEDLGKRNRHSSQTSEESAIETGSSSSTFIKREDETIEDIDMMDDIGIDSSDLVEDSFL
T2 sequence (P16234 with tags, fused parts or gaps D842V): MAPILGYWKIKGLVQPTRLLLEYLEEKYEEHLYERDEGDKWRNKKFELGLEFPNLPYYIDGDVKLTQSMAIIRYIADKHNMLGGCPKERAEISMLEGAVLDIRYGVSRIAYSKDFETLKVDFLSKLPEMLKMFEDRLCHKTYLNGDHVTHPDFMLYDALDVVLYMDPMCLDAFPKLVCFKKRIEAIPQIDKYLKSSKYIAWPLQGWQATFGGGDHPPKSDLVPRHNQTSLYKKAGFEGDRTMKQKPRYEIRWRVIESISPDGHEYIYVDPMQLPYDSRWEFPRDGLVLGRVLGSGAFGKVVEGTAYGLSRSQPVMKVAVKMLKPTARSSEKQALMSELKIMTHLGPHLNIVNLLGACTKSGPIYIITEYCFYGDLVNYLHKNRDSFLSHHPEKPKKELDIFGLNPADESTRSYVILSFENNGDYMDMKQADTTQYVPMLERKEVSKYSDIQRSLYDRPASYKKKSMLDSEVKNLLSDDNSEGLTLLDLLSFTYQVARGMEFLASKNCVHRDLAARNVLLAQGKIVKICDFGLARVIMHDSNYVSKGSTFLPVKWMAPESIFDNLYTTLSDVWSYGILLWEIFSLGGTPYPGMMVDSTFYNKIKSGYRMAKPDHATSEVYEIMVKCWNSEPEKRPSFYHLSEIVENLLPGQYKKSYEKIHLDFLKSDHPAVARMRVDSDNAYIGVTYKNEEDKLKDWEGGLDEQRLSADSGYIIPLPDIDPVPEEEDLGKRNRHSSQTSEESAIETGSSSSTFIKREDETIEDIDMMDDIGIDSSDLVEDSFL
T3 sequence (P16234 24-1089 D842V): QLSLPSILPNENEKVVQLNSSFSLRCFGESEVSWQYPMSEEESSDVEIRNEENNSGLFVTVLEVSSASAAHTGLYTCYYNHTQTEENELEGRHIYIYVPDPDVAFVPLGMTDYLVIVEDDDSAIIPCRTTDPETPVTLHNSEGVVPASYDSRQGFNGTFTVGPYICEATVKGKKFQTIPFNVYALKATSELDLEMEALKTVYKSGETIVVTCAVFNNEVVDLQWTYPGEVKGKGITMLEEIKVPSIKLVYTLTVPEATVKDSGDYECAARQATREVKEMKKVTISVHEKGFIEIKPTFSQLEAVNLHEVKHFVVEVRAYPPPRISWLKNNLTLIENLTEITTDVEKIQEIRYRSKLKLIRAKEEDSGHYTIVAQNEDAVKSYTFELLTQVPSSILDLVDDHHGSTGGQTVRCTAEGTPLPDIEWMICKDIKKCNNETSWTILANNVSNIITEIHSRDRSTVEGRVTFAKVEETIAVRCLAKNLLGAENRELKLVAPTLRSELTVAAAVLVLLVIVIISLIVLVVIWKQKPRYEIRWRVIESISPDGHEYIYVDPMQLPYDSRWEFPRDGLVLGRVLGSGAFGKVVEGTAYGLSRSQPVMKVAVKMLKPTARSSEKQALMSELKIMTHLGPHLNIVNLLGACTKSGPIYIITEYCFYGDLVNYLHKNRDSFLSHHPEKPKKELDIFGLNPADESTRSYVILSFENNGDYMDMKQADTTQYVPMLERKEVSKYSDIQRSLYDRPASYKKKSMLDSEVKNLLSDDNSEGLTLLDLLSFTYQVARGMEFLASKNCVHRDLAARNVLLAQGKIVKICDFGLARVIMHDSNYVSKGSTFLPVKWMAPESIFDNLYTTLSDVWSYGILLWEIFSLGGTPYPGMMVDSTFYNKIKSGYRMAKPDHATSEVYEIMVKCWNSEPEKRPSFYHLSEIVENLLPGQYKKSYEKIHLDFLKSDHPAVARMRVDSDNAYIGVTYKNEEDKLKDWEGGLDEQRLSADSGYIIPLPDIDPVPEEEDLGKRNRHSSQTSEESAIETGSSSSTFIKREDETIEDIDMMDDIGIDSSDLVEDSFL

In the case of `CCn1c(=O)c(-c2cc(NC(=O)Nc3ccccc3)c(F)cc2Br)cc2cnc(NC)cc21` [Compound A, 1-[4-bromo-5-[1-ethyl-7-(methylamino)-2-oxo-1,2-dihydro-1,6-naphthyridin-3-yl]-2-fluorophenyl]-3-phenylurea], the Clinical outcome in data set [1] (30 mg BID oral, cycles of 28 days) is given as “progressed after 2 treatment cycles”. Also, the “Time on treatment with continued benefit” value in data set [1] (100 mg BID oral, Cycle 11) is listed as over 40 weeks. Besides, the “Tumor assessment according to RECIST 1.1” value in data set [1] (100 mg BID oral, most recent assessment) was “Stable Disease”. For the same compound, the Tumor reduction result in data set [1] (150 mg QD oral) is listed as “some tumor reduction observed”. The Time on treatment in data set [1] (150 mg QD oral, Cycle 6) is over 20 weeks. Also, the “Tumor assessment per RECIST” value in [1] (150 mg QD oral, Cycle 6) is given as “stable disease”. Also, the Cmax in [2] (oral Compound A 150 mg BID) was determined as 1500 ng/mL; in data set [2] (oral Compound A 150 mg QD), 861 ng/mL. Besides, the “Compound A AUC12h (mean)” value in data set [2] (oral Compound A 150 mg QD) is reported as 8,070 ng*h/mL. The “PDGFRα D842V mutation allele frequency in plasma cfDNA” value is 0.59% in data set [3] (Cycle 3 Day 1 (8 weeks), not detected at baseline); “undetectable” in [3] (Cycle 5 Day 1 (16 weeks) and Cycle 7 Day 1 (24 weeks)). Moreover, the “Frequency of double positive CTCs (PDGFRα+/GFAP+)” value in [4] (cycle 7 (28 weeks)) came to 2.22 CTCs/mL; in [4] (cycle 13 (52 weeks)), 1.11 CTCs/mL; in data set [4] (cycle 17 (68 weeks)) it was 0.58 CTCs/mL. Also, the “Tumor response according to the RANO criteria” value in data set [5] (PDGFRα 6× amplified, since assessment after Cycle 12 (48 weeks)) is reported as “Partial Response”. The “Time on study with continued benefit” value in data set [5] (PDGFRα amplified, cycle 19) is over 17 months.

Regarding `CCn1c(=O)c(-c2cc(NC(=O)Nc3ccccc3)c(F)cc2Br)cc2cnc(N)cc21` [Compound B, 1-(5-(7-amino-1-ethyl-2-oxo-1,2-dihydro-1,6-naphthyridin-3-yl)-4-bromo-2-fluorophenyl)-3-phenylurea], the IC50 in data set [6] was 5 nM; in data set [7] it was 20 nM; in data set [8], 42 nM; in data set [9], under 0.1 nM; in data set [10], 26 nM; in data set [11] it was 6 nM. Further, the IC50 in data set [12] was found to be 0.018 nM.

The record behind these values is patent publication US20220370424A1 (Deciphera Pharmaceuticals, LLC, priority 2017, published 2022).
